Reference: patent US20060293241A1, “Pharmaceutical composition comprising a factor VII polypeptide and epsilon-aminocaproic acid” (Novo Nordisk HealthCare A/G, priority 2001, published 2006)

Experiments:
[1] = system: Normal human plasma diluted 10-fold; experiment: Clot lysis assay (Example 1), turbidity at 650 nm; type: biochemical; settings: in the presence of 10 nM FVIIa; t-PA 8 nM
Description: Clot lysis assay: Normal human plasma diluted 10-fold with buffer (20 mM HEPES, 150 mM NaCl, 5 mM CaCl, pH 7.4) containing Innovin (Dade Behring, 2000-fold dilution), rFVIIa (Novo Nordisk A/S Bagsvaerd, Denmark, various concentrations) and t-PA (American Diagnostica, 8 nM) was added to 96-well ELISA plates and turbidity at 650 nm was measured over time at room temperature. Where indicated, epsilon-Aminocaproic Acid (Sigma, various concentrations) was included.

[2] = system: Normal human plasma (NHP); experiment: Clot lysis assay (Example 2), clot survival in NHP and NHP diluted 1:2 with plasma expander; type: biochemical; settings: in combination with 40 nM FVIIa
Description: Clot lysis assay: Normal human plasma (NHP) and NHP diluted 1:2 with plasma expander Macrodex or HES 200/0.5 used clinically for maintaining blood pressure under surgical procedures was mixed with lipidated recombinant TF (Innovin 1:60,000), CaCl2 10 mM, +/−FVIIa 40 nM, phosfatidylcolin/phosphateidylserine vesicles 6 μM, tPA […] and +/−the indicated doses of e-aminocaproic acid (EACA). Clot survival was measured as the time for clot start until the time for clot lysis.

## NCCCCCC(=O)O [EACA, epsilon-aminocaproic acid]
[1]
  effect on clot lysis time: further prolongation of the clot lysis time
  epsilon-Aminocaproic Acid concentration at which effect on clot lysis time was optimal: 1 µM
[2]
  effect on clot survival time: increase in clot survival time
